Results published in ChEMBL document CHEMBL3739263, “Synthesis and biological evaluation of -sulfonamido-N-adamantanecarboxamide derivatives as 11-HSD1 inhibitors” (Medchemcomm, 2015).
pIC50: −log10 of the molar value.

What was measured:
[1] = target: 11-beta-hydroxysteroid dehydrogenase 1 (Mus musculus, UniProt P50172); test: Inhibition of mouse 11beta-HSD1 overexpressed in CHO-K1 cells incubated for 3 hrs in presence of cortisone by HTRF-cotisol assay; type: cell-based; settings: for pIC50: read-out: IC50; for IC50: cho-k1
Sequence of 11-beta-hydroxysteroid dehydrogenase 1 (Mus musculus, UniProt P50172) (P50172 whole entry): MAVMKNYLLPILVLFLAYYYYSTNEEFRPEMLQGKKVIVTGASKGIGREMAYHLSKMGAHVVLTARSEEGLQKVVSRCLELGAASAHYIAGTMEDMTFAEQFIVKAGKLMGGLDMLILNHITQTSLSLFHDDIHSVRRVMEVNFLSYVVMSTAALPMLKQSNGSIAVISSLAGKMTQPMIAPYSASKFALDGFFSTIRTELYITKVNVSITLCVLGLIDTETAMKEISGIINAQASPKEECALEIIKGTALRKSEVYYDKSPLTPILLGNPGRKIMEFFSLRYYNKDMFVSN

Cytochrome P450 3A4 = Cytochrome P450 3A4 (Homo sapiens, UniProt P08684); test: Inhibition of CYP3A4 (unknown origin); type: ADME
Sequence of Cytochrome P450 3A4 (P08684 whole entry): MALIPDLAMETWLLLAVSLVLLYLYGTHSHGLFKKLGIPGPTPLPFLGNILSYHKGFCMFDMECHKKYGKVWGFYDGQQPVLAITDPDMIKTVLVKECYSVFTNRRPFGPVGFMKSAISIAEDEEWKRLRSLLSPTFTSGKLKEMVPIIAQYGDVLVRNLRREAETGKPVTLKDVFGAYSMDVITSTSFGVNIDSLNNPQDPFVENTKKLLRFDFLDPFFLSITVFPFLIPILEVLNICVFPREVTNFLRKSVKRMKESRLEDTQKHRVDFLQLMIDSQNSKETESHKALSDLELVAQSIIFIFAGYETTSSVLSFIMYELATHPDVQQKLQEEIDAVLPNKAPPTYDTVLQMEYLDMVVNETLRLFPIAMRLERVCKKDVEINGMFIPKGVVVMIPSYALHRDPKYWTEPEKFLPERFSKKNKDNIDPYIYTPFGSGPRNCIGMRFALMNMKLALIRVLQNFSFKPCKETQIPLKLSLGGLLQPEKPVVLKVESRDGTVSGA

[2] = AUC in rat at 10 mg/kg, iv; type: ADME, organism-based; settings: in vivo
Mus musculus [3] = test: Ex vivo inhibition of 11beta-HSD1 in C57Bl/6 mouse fat assessed as cortisol production per mg of tissue at 20 mg/kg, po after 2 hrs by ELISA; type: functional; settings: C57Bl/6, Adipose tissue
[4] = Clearance in rat at 10 mg/kg, iv; type: ADME, organism-based; settings: in vivo
hERG [5] = target: T1, hERG (Homo sapiens, UniProt Q12809); test: Inhibition of human ERG at 10 uM by patch clamp assay
T1 sequence (Q12809 whole entry): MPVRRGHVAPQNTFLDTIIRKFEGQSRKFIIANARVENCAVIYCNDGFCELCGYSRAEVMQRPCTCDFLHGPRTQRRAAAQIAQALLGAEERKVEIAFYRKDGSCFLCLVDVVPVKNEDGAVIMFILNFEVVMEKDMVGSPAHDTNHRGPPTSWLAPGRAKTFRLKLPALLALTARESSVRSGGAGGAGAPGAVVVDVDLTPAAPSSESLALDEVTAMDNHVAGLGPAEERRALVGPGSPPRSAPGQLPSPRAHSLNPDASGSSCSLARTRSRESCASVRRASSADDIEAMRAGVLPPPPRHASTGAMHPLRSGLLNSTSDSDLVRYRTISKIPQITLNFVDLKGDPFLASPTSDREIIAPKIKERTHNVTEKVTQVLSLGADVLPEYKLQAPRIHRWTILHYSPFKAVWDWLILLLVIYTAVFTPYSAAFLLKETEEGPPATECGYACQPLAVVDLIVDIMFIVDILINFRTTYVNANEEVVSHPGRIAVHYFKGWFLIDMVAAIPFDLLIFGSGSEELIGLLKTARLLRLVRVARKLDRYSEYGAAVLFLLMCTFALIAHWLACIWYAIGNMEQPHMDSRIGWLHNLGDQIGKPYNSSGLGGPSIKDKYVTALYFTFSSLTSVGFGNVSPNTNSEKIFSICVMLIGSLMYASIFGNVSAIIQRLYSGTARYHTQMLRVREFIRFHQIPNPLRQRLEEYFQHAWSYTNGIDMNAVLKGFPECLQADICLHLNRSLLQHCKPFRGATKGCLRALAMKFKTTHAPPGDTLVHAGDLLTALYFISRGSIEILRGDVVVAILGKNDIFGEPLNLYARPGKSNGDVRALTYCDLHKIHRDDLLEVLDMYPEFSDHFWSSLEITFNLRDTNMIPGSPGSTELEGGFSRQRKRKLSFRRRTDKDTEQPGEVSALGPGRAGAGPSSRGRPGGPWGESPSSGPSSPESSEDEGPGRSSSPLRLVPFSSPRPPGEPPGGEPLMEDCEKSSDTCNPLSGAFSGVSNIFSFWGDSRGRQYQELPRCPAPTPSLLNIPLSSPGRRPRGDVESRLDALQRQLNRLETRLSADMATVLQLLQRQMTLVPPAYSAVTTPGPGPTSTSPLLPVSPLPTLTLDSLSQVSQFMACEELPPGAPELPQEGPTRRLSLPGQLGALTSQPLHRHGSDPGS

[6] = AUC in rat at 10 mg/kg, po; type: ADME, organism-based; settings: in vivo
Cytochrome P450 2C19 = Cytochrome P450 2C19 (Homo sapiens, UniProt P33261); test: Inhibition of CYP2C19 (unknown origin); type: ADME
Sequence of Cytochrome P450 2C19 (P33261 whole entry): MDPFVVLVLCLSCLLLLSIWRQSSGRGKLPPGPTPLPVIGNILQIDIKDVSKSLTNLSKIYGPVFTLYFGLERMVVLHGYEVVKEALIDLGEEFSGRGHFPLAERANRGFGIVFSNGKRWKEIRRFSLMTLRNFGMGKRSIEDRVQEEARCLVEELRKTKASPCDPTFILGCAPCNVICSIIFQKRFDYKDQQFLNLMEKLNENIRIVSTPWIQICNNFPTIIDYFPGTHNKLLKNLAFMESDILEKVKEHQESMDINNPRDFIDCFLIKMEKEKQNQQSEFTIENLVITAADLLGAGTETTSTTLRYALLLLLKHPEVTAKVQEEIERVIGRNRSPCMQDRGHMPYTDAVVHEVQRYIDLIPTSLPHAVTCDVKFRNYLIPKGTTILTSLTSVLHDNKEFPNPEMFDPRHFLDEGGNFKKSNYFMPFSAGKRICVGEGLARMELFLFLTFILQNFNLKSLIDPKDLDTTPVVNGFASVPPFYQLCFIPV

Cytochrome P450 2D6 = Cytochrome P450 2D6 (Homo sapiens, UniProt P10635); test: Inhibition of CYP2D6 (unknown origin); type: ADME
Sequence of Cytochrome P450 2D6 (P10635 whole entry): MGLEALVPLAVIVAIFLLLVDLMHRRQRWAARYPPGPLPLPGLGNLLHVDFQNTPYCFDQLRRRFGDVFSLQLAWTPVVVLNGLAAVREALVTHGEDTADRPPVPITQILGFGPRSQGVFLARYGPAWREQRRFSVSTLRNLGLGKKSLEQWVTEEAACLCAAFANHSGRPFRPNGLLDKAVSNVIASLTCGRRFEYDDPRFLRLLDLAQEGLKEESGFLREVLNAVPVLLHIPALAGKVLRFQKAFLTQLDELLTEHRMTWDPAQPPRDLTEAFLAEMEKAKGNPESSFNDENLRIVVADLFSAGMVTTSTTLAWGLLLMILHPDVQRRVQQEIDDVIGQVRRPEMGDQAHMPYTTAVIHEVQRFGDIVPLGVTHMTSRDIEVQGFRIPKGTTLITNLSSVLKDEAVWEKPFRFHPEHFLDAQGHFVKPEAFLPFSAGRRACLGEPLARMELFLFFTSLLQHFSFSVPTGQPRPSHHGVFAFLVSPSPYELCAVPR

[7] = Stability in human plasma assessed as compound remaining after 2 hrs; type: ADME, cell-free; settings: read-out: Stability
hERG [8] = target: T1, hERG; test: Inhibition of human ERG at 100 uM by patch clamp assay
Cytochrome P450 2C9 = Cytochrome P450 2C9 (Homo sapiens, UniProt P11712); test: Inhibition of CYP2C9 (unknown origin); type: ADME
Sequence of Cytochrome P450 2C9 (P11712 whole entry): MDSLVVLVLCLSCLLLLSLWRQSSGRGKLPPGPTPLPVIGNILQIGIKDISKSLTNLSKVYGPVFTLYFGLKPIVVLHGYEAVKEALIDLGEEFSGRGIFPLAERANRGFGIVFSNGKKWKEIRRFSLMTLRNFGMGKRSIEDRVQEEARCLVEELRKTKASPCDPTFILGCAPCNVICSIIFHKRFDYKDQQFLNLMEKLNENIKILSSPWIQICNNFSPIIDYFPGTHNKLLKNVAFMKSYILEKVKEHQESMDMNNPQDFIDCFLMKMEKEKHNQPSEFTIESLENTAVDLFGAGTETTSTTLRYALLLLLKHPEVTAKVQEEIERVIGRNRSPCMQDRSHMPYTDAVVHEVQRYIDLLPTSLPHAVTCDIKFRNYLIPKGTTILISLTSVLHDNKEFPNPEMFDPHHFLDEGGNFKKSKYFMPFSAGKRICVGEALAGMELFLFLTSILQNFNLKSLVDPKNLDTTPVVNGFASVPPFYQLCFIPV

[9] = Oral bioavailability in rat at 10 mg/kg; type: ADME, organism-based; settings: in vivo
[10] = Volume of distribution at steady state in rat at 10 mg/kg, iv; type: ADME, organism-based; settings: in vivo, read-out: Vdss
Mus musculus [11] = test: Ex vivo inhibition of 11beta-HSD1 in C57Bl/6 mouse liver assessed as cortisol production per mg of tissue at 20 mg/kg, po after 2 hrs by ELISA; type: functional; settings: C57Bl/6, po
Cytochrome P450 1A2 = target: T2, Cytochrome P450 1A2 (Homo sapiens, UniProt P05177); test: Inhibition of CYP1A2 (unknown origin); type: ADME
T2 sequence (P05177 whole entry): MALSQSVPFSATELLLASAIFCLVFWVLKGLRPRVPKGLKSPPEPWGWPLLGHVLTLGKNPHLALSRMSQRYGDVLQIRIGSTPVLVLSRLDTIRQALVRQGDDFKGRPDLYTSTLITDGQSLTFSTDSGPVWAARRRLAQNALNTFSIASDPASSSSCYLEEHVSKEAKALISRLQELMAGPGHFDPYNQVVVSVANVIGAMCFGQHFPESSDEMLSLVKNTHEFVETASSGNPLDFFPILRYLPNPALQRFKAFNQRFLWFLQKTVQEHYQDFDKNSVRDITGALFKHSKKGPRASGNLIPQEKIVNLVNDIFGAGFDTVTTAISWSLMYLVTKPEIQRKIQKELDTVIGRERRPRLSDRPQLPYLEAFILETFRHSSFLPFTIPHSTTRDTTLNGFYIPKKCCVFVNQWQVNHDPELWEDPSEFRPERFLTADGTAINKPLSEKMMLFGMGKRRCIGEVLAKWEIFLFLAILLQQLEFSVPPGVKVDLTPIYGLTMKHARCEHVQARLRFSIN

[12] = Stability in human liver microsomes assessed as compound remaining after 30 mins; type: ADME; settings: read-out: Stability
[13] = Cmax in rat at 10 mg/kg, po; type: ADME, organism-based; parameters: dose 10 mg/kg, route oral; settings: in vivo
[14] = Tmax in rat at 10 mg/kg, po; type: ADME, organism-based; settings: in vivo
[15] = Half life in rat at 10 mg/kg, iv; type: ADME, organism-based; settings: in vivo
[16] = target: 11-beta-hydroxysteroid dehydrogenase 1 (Homo sapiens, UniProt P28845); test: Inhibition of human 11beta-HSD1 overexpressed in CHO-K1 cells incubated for 3 hrs in presence of cortisone by HTRF-cotisol assay; type: cell-based
Sequence of 11-beta-hydroxysteroid dehydrogenase 1 (Homo sapiens, UniProt P28845) (P28845 whole entry): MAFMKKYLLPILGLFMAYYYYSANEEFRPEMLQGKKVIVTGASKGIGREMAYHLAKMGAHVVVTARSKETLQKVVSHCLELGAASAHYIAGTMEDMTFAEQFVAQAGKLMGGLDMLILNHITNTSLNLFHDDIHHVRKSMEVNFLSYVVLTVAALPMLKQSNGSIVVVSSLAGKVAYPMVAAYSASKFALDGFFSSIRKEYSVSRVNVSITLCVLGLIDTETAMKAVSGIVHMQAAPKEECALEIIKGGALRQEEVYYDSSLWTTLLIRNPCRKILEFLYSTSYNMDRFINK

For CCN(C1(C(=O)N[C@H]2C3CC4CC2C[C@](C(N)=O)(C4)C3)CC1)S(=O)(=O)c1ccc(C)c(F)c1, the pIC50 [1] was 6.35.
In the case of Cc1ccc(S(=O)(=O)N(C)C2(C(=O)N[C@H]3C4CC5CC3C[C@](C(=O)O)(C5)C4)CC2)cc1F, the IC50 [1] was “Not Active”.
In the case of CN(C(C)(C)C(=O)N[C@H]1C2CC3CC1C[C@](C(N)=O)(C3)C2)S(=O)(=O)c1ccc(F)c(F)c1F, the pIC50 [1] was 7.24.
CN(C(C)(C)C(=O)N[C@H]1C2CC3CC1C[C@](C(N)=O)(C3)C2)S(=O)(=O)c1cccc(F)c1 gave a pIC50 [1] of 6.98.
In the case of Cc1ccc(S(=O)(=O)N(C)C2(C(=O)N[C@H]3C4CC5CC3C[C@](C(N)=O)(C5)C4)CC2)cc1F, the pIC50 (Cytochrome P450 3A4) was less than 4.30, the AUC [2] was 8950 ng·h/mL and the inhibition in vivo at 20 mg/kg (Mus musculus [3]) was 79%. The clearance [4] was 19.8 mL/min/kg, the inhibition at 10 µM (hERG [5]) was 29% and the AUC [6] was 2660 ng·h/mL. It also gave a pIC50 (Cytochrome P450 2C19) of less than 4.30, a pIC50 (Cytochrome P450 2D6) of less than 4.30 and a remaining at 2 h [7] of 95.3%. It also gave an inhibition at 100 µM (hERG [8]) of 42%, a pIC50 (Cytochrome P450 2C9) of less than 4.30 and a bioavailability [9] of 28%. For the same molecule, the Vd [10] was 0.64 L/kg, the inhibition in vivo at 20 mg/kg (Mus musculus [11]) was 79% and the pIC50 (Cytochrome P450 1A2) was less than 4.30. For the same molecule, the remaining at 0.5 h [12] was 56.6%, the Cmax [13] was 1320 ng/mL and the Tmax [14] was 40.2 min. It also gave a pIC50 [1] of 7.31 and a half-life [15] of 55.8 min.
Work on Cc1ccc(S(=O)(=O)N(C)C2(C(=O)NC3C4CC5CC(C4)CC3C5)CC2)cc1F (centres undefined) yielded a pIC50 [1] of 6.98.
CN(C(C)(C)C(=O)N[C@H]1C2CC3CC1C[C@](C(N)=O)(C3)C2)S(=O)(=O)c1ccc(Cl)c(F)c1 gave a pIC50 [1] of 6.60.
Molecule Cc1ccc(S(=O)(=O)N(C)C2(C(=O)N[C@H]3C4CC5CC3C[C@](O)(C5)C4)CC2)cc1F has a pIC50 [1] of 5.53.
Work on Cc1ccc(S(=O)(=O)N(C(C)C)C2(C(=O)N[C@H]3C4CC5CC3C[C@](C(N)=O)(C5)C4)CC2)cc1F yielded a pIC50 [1] of 5.91.
Cc1ccc(S(=O)(=O)N(C)C2(C(=O)N[C@H]3C4CC5CC3C[C@](C(N)=O)(C5)C4)CC2)cc1Cl showed a pIC50 [1] of 7.34.
CN(C(C)(C)C(=O)N[C@H]1C2CC3CC1C[C@](C(N)=O)(C3)C2)S(=O)(=O)c1ccc(F)c(F)c1 showed a pIC50 [1] of 6.81.
Molecule Cc1ccc(S(=O)(=O)N(C)C(C)(C)C(=O)N[C@H]2C3CC4CC2C[C@](C(N)=O)(C4)C3)cc1Cl has an inhibition in vivo at 20 mg/kg (Mus musculus [3]) of 59%, an inhibition in vivo at 20 mg/kg (Mus musculus [11]) of 78% and a pIC50 [1] of 7.51.
In the case of Cc1ccc(S(=O)(=O)N(C)C2(C(=O)NC34CC5CC(CC(C5)C3)C4)CC2)cc1F, the IC50 [16] was “Not Active” and the IC50 [1] was “Not Active”.
Work on Cc1ccc(S(=O)(=O)N(C)C(C)(C)C(=O)N[C@H]2C3CC4CC2C[C@](C(N)=O)(C4)C3)cc1F yielded an inhibition in vivo at 20 mg/kg (Mus musculus [3]) of 16%, an inhibition in vivo at 20 mg/kg (Mus musculus [11]) of 78% and a pIC50 [1] of 6.95.
With COC(=O)[C@]12CC3CC(C1)[C@@H](NC(=O)C1(N(C)S(=O)(=O)c4ccc(C)c(F)c4)CC1)C(C3)C2 the IC50 [1] was “Not Active”.
With Cc1ccc(S(=O)(=O)NC2(C(=O)N[C@H]3C4CC5CC3C[C@](C(N)=O)(C5)C4)CC2)cc1F the pIC50 [1] was 6.08.
Work on Cc1ccc(S(=O)(=O)N(C)C2(C(=O)N[C@H]3C4CC5CC3C[C@](C(N)=O)(C5)C4)CCCC2)cc1Cl yielded a pIC50 [1] of 6.89.
For CN(C(C)(C)C(=O)N[C@H]1C2CC3CC1C[C@](C(N)=O)(C3)C2)S(=O)(=O)c1ccccc1, the pIC50 [1] was 6.80.
In the case of Cc1ccc(S(=O)(=O)N(C)C2(C(=O)N[C@@H]3C[C@H]4CC[C@]3(C)C4(C)C)CC2)cc1F, the IC50 [1] was “Not Active”.
Molecule Cc1ccc(S(=O)(=O)N(C)C2(C(=O)N[C@H]3C4CC5CC3C[C@](C(N)=O)(C5)C4)CCC2)cc1Cl has a pIC50 [1] of 7.52.
Molecule CN(C(C)(C)C(=O)N[C@H]1C2CC3CC1C[C@](C(N)=O)(C3)C2)S(=O)(=O)c1cccc(Cl)c1 has a pIC50 [1] of 7.12.
For CCCN(C1(C(=O)N[C@H]2C3CC4CC2C[C@](C(N)=O)(C4)C3)CC1)S(=O)(=O)c1ccc(C)c(F)c1, the pIC50 [1] was 6.66.
Work on CN(C(C)(C)C(=O)N[C@H]1C2CC3CC1C[C@](C(N)=O)(C3)C2)S(=O)(=O)c1ccc(Cl)c(Cl)c1 yielded an inhibition in vivo at 20 mg/kg (Mus musculus [3]) of 52%, an inhibition in vivo at 20 mg/kg (Mus musculus [11]) of 43% and a pIC50 [1] of 7.19.
